From PMC5411959, “Potential Antiosteoporotic Natural Product Lead Compounds That Inhibit 17β-Hydroxysteroid Dehydrogenase Type 2” (Journal of Natural Products, 2017)

Experiments:
human 17β-HSD2 = target: T1, human 17β-HSD2 (Homo sapiens, UniProt P37059); experiment: 17β-HSD2 activity assay using lysates of HEK-293 cells expressing the recombinant human enzyme; type: biochemical; settings: for IC50: HEK-293 lysates, 200 nM estradiol, 500 μM NAD+, 10 min 37 °C;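 for all read-outs here: conversion of tritium-labelled estradiol (200 nM, with 500 µM NAD+, 10 min) quantified after TLC separation by scintillation counting, at least three independent measurements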
T1 construct: expressed in transfected cells; host or cells: HEK-293 (ATCC), used as cell lysate
T1 sequence (P37059 1-387): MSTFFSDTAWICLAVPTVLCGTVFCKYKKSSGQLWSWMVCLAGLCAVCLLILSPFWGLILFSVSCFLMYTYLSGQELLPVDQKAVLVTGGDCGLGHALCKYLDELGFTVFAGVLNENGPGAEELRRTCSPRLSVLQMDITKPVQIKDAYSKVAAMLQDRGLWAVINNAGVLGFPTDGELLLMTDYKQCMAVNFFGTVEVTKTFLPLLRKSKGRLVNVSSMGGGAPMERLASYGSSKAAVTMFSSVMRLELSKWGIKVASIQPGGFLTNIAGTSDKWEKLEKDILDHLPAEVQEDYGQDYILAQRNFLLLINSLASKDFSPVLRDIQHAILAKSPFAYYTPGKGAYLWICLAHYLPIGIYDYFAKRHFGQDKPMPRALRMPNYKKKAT

human 17β-HSD1 = target: T2, human 17β-HSD1 (Homo sapiens, UniProt P14061); experiment: 17β-HSD1 activity assay using lysates of HEK-293 cells expressing the recombinant human enzyme; type: biochemical; settings: for selectivity factor: 17β-HSD1 versus 17β-HSD2; for selectivity over 17β-HSD1: 17β-HSD2 over 17β-HSD1; for IC50: HEK-293 lysates, 200 nM estrone, 500 μM NADPH; for 17β-HSD1 inhibition (in words; n.i. = no inhibition): screened at 20 μM
T2 construct: expressed in transfected cells; host or cells: HEK-293 (ATCC), used as cell lysate
T2 sequence (P14061 1-328): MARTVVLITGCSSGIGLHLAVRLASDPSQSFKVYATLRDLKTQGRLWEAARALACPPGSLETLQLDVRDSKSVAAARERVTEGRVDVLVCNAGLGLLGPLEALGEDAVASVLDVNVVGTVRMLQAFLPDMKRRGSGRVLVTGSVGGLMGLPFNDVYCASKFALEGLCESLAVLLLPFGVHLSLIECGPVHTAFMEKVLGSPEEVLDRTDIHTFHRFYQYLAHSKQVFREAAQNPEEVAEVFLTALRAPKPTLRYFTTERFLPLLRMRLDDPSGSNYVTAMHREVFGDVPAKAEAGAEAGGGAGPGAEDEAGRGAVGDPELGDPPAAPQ

[1] = Compound stability in the test system (repeated and prolonged incubation, thawing-freezing cycles); type: physicochemical; settings: prolonged incubation, IC50 in weeks 1 and 3, thawing-freezing cycles
From the text: extent these PAINS should be excluded from further research. Much more data is needed to finally provide directions for the use of PAINS filters4.
Besides these general aspects of PAINS, there are of course many arguments about curcumin itself as a hit. We are aware of the compound’s many reported bioactivities observed in in vitro studies and additionally of its very poor bioavailability. However, this study is a proof of concept study identifying many natural products inhibiting 17β-HSD2 when there is direct access to the binding site and we categorize curcumin as one of them. Why? A very recent analysis of curcumin data […]
Criterion 1. Look for evidence of compound stability in assay buffer/media, including when molecular models are invoked as supporting evidence of target engagement.
We observed no significant changes in inhibition in the experimental repetition also when the incubation time was prolonged. Actually, the assay duration is only 10 minutes and the compound has direct access to the binding site when using cell […]
Criterion 2. Look for the presence of detergent and thiol-scavenging reagents in biochemical assays to mitigate the impact of chemical aggregation and nonspecific thiol reactivity. Are/were any additional counterscreens performed to rule out these phenomena? […]
reactivity would alter the enzymes activities. Also this has not been observed.

17β-HSD = test system: 17β-HSD; parameters: method as in PMID 11731908; settings: cited from earlier work
human ERα = test system: human ERα; parameters: method as in PMID 25106881; settings: reported; read-out: ERα activation EC50; cited from earlier work

Compound | IC50 (human 17β-HSD2) [µM] | selectivity factor (human 17β-HSD1) | selectivity over 17β-HSD1 (human 17β-HSD1) [fold] | IC50 (human 17β-HSD1) [µM] | 17β-HSD1 inhibition (in words; n.i. = no inhibition) (human 17β-HSD1) | also measured
COc1cc(/C=C/C(=O)CC(=O)/C=C/c2ccc(O)c(OC)c2)ccc1O [compound 3, curcumin] | 1.73 ± 0.2 | ∼12 |  |  |  | IC50 values with 0.1% Triton-X100 added, versus absence of detergent (human 17β-HSD2; 0.1% Triton-X100 in reaction mixture): comparable; remaining activity at 20 µM (human 17β-HSD1; read-out: 17β-HSD1 remaining activity at 20 μM): 52.2 ± 7.1%; stability in the test system [1]: seemed to be stable
COc1cc(C[C@@H](C)[C@H](C)Cc2ccc(O)c(OC)c2)ccc1O [compound 4, (−)-dihydroguaiaretic acid] | 0.94 ± 0.02 | 8 | ≥ 8 | 7.7 ± 2.2 |  | effect on 17β-HSD activity in placenta microsomes (17β-HSD): no effects
O=c1c(-c2ccc(O)cc2O)coc2cc(O)cc(O)c12 [compound 9, 2′-hydroxygenistein] | 2.03 ± 0.37 | 0.5 |  | 1.09 ± 0.06 |  | classification (17β-HSD2 inhibition) (human 17β-HSD2; flavonoid SAR model, Table 4): active; EC50 (human ERα): 6.1 µM
CC(Cc1ccc(O)c(O)c1)C(C)Cc1ccc(O)c(O)c1 (stereo not drawn) [compound 1, nordihydroguaiaretic acid] | 0.38 ± 0.04 | 15 | ≥ 8 | 5.5 ± 1.3 |  | times more active toward 17β-HSD2 than 17β-HSD1 (human 17β-HSD1): 15 times
CCOC(=O)c1ccc(O)c(OC)c1 [compound 12, ethyl vanillate] | 1.28 ± 0.26 |  |  |  | n.i. | 
O=C(Cc1ccc(O)c(Cl)c1)NCCc1ccccc1 [compound 13, 2-(3-chloro-4-hydroxyphenyl)-N-phenethylacetamide] | 1.57 ± 0.16 |  |  |  | n.i. | 
